Literature values in USRE48948E1, “Clonidine compounds in a biodegradable polymer” (priority 2008, dated 2022).
Structures can show the parent of a compound that is named as a salt.

Experiments:
[1] = test system: post-surgical knee pain; settings: Intra-articular administration of 150 mcg
[2] = in vivo

**Q.** For `Clc1cccc(Cl)c1N=C1NCCN1` [clonidine HCL], which “relief of post-surgical knee pain” value [1] is on record?
**A.** as effective as morphine

**Q.** With `Clc1cccc(Cl)c1N=C1NCCN1` [clonidine, 2,6-dichloro-N-2-imidazolidinyldenebenzenamine] as the compound, how does the “plasma concentration above which antihypertensive effects become evident” value [2] read?
**A.** above 500 pg/mL

**Q.** What about the “systemic concentration associated with spinal analgesia” value [2] of the same compound?
**A.** approximately 2 ng/mL
